Laboratory results as given in patent US9040534B2, “[1,2,4]triazolo[4,3-a]pyrazines as P2X7 modulators” (Janssen Pharmaceutica NV, priority 2013, dated 2015).
pIC50, pKi: −log10 of the molar value.

Assays:
P2X7 [1] = target: T1, P2X7 (Homo sapiens (Human), UniProt Q99572); assay: Radioligand binding, human P2X7-1321N1 cell membranes, tritiated A-804598 tracer; details: 1 hour at 4° C.
Method: (B) Radioligand binding: human or rat P2X7-1321N1 cells were collected and frozen @ −80° C. On the day of the experiment, cell membrane preparations were made according to standard published methods. […] The compound can be prepared as described in the literature. […] The assay was terminated by filtration (GF/B filters pre-soaked with 0.3% PEI) and washed with washing buffer (Tris-HCl 50 mM). The IC50 generated in the binding assay was corrected for tracer concentration and affinity of the tracer to derive at the affinity (Ki) of the test compounds.

P2X7 [2] = target: T1, P2X7; assay: Ca2+ flux (FLIPR) in 1321N1 cells expressing recombinant human P2X7 channel; type: cell-based; details: 250 μM BzATP
Method: (§1) (A) Ca^2+ Flux: 1321N1 cells expressing the recombinant human, rat or mouse P2X7 channel was cultured in HyQ DME/(HyClone/Dulbecco's Modified Eagle Medium) high glucose supplemented with 10% Fetal Bovine Serum (FBS) and appropriate selection marker. Cells were seeded at a density of 25000 cells/well (96-well clear bottom black walled plates) in 100 μl volume/well. On the day of the experiment, cell plates were washed with assay buffer, containing (in mM): 130 NaCl, 2 KCl, 1 CaCl2, 1 MgCl2, 10 HEPES, 5 glucose; pH 7.40 and 300 mOs. After the wash, cells were loaded with the Calcium-4 dye (Molecular Device) and incubated in the dark for 60 minutes. Test compounds were prepared at 250× the test concentration in neat DMSO. Intermediate 96-well compound plates were prepared by transferring 1.2 μL of the compound into 300 μL of assay buffer. A further 3× dilution occurred when transferring 50 μL/well of the compound plate to 100 μL/well in the cell plate. Cells were incubated with test compounds and dye for 30 minutes. […] The fluorescence change was measured 180 seconds after adding the agonist.

rat P2X7 = rat P2X7 (Rattus norvegicus (Rat), UniProt Q64663); assay: Ca2+ flux (FLIPR) in 1321N1 cells expressing recombinant rat P2X7 channel; type: cell-based; details: 250 μM BzATP
Chain of rat P2X7 (Q64663 whole entry): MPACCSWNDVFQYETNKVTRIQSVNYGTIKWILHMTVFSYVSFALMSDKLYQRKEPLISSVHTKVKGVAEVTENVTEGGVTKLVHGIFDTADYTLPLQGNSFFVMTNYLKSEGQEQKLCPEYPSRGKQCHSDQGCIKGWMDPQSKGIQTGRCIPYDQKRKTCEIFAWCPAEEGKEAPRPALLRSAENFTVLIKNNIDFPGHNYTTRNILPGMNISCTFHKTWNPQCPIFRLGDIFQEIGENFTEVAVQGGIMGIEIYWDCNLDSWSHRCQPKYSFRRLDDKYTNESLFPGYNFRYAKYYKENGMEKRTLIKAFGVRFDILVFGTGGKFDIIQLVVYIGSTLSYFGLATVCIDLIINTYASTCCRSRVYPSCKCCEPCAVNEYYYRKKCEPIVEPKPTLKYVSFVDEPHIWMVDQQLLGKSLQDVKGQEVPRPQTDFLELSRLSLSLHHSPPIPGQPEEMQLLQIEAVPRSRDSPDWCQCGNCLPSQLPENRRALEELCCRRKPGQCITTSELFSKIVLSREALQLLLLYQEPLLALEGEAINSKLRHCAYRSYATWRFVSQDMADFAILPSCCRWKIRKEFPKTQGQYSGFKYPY
Method: as §1

P2X7 [3] = target: T1, P2X7; assay: P2X7 antagonism in human whole blood (LPS + Bz-ATP induced IL-1β release, ELISA); type: cell-based; details: 1 mM Bz-ATP
Method: Human blood was collected using a blood donor program. PBMCs were isolated from blood using a Ficoll density gradient technique. Briefly, blood was laid on Ficoll solution and centrifuged at RT for 20 minutes at 2000 rpm. The buffy layer (between red blood cells and plasma) was carefully collected by aspiration, washed with PBS and centrifuged again at 1500 rpm for 15 minutes. The resulting cell pellet was washed and plated on 96 well-plates for experiments. […] Lipopolysaccharide (LPS) (30 ng/ml) was added to each well and incubated for 1 hour. Test compounds were then added and incubated for 30 minutes. The P2X7 agonist, 2′(3′)-O-(4-benzoylbenzoyl) adenosine 5′-triphosphate (Bz-ATP) was then added at a final concentration of 0.5 mM (PBMC) or 1 mM (blood). Cells were incubated for an additional 1.5 hours. At that point, supernatant was collected and stored for IL-1β assay using manufacturer's protocol for enzyme-linked immunosorbent assay (ELISA). Data was expressed as percent control, where control is defined as the difference in IL-1β release in LPS+Bz-ATP samples and LPS only samples. Data was plotted as response (% control) versus concentration to generate IC50 values.

T1 sequence (Q99572 whole entry): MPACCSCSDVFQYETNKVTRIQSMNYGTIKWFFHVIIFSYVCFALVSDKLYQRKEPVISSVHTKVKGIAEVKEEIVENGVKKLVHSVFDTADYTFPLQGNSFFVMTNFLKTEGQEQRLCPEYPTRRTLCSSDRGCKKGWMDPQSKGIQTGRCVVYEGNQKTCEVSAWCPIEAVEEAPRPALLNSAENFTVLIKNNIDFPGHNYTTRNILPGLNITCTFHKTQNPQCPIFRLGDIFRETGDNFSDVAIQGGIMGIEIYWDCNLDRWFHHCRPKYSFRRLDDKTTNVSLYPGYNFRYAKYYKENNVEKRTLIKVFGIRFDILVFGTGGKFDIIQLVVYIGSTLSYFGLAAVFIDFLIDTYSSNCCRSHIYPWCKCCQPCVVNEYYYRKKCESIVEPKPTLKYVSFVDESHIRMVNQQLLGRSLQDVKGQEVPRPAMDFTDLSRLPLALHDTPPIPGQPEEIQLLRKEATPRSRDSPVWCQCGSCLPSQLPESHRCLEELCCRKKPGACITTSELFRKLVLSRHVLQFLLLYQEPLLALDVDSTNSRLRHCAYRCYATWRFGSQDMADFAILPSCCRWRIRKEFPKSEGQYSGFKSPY

Row | Compound | pKi (P2X7 [1]) | pIC50 (P2X7 [2]) | pIC50 (rat P2X7) | pIC50 (P2X7 [3])
1 | O=C1c2nnc(-c3ccccn3)n2CCN1Cc1cccc(Cl)c1Cl [Example 8, 7-(2,3-Dichlorobenzyl)-3-pyridin-2-yl-6,7-dihydro[1,2,4]triazolo[4,3-a]pyrazin-8(5H)-one] | 7.70 | 6.83 | < 5.00 | 5.00
2 | O=C1c2nnc(-c3ccccn3)n2CCN1Cc1cccc(C(F)(F)F)c1Cl [Example 9, 7-[2-Chloro-3-(trifluoromethyl)benzyl]-3-pyridin-2-yl-6,7-dihydro[1,2,4]triazolo[4,3-a]pyrazin-8(5H)-one] | 8.00 | 7.30 | < 5.00 | < 5.00
